{
  "source": "patent US6831080B2",
  "about": "“Cinnamide derivatives as KCNQ potassium channel modulators” (Bristol-Myers Squibb Company, priority 2001, dated 2004)",
  "key": {"[1]": {"tested_on": "stretched attend postures, BalbC/HSD mice", "test": "Canopy test for anxiety: stretched attend postures (SAPs)", "assay_type": "in vivo, mouse", "source_text": "The purpose of the Canopy test is to investigate the potential of compounds of Formula I as effective treatments for anxiety by examining an integral component of the risk assessment repertoire of defensive behaviors, the stretched attend posture (SAPs). […] This behavior is investigatory, and is considered an important behavioral indicator of anxiety in mice (Grewal et al., 1997). In brief, mice are placed on an elevated circular platform with a covered space in the middle, and an open space surrounding the covered zone. The number of SAPs the animals makes when exploring this environment are measured.\nSubjects: Male BalbC/HSD mice (Harlan Sprague Dawley) weighing approximately 20-25 g at the beginning of the experiment, were used. Animals were group housed 4-5 per cage, in standard shoebox cages and maintained on a 12:12 h light-dark cycle (lights on at 0600). All animals were allowed food and water ad libitum throughout the procedure.\nApparatus: The test apparatus is comprised of a black plexiglas circular platform (70 cm diameter) elevated 60 cm above the floor. A clear red plexiglas (translucent) ‘canopy’ (38 cm diameter) is supported 4 cm directly above the platform by a central pillar, effectively dividing the platform into an inner, covered zone (beneath the canopy) and an outer, exposed zone. The apparatus is illuminated by normal room lighting.\nProcedure: On test days mice are transported in their home cage to the testing room which is free of noise/distraction and the mice are injected with the compound of choice, prior to testing. For the KCNQ compounds, when administered IV, pretreatment time is 15 minutes. For oral administration, pretreatment time is 1 hour. Following the pretreatment, the animal is placed in the covered zone of the platform, always oriented in the same direction, facing the pillar. For 5 minutes the animals are allowed to freely explore the apparatus. The dependent variable is the number of Stretched Attend Postures, which are scored by an observer blind to treatment condition. Data were analyzed by an overall analysis of variance followed by Dunnett's post hoc tests. An effect was considered significant if p<0.05.\nAll test compounds are administered in a volume of 10 ml/kg. Vehicle and buspirone (as the positive control) treated mice were run with each experiment, and buspirone was dissolved in the same vehicle as used per each compound. Compounds of Formula I were administered IV, in a vehicle containing 10% PEG400/5% Tween/85% water, warmed on a hot plate."}, "[2]": {"target": "cloned mouse KCNQ2 (mKCNQ2) (Mus musculus, UniProt Q9Z351)", "sequence (Q9Z351 whole entry)": "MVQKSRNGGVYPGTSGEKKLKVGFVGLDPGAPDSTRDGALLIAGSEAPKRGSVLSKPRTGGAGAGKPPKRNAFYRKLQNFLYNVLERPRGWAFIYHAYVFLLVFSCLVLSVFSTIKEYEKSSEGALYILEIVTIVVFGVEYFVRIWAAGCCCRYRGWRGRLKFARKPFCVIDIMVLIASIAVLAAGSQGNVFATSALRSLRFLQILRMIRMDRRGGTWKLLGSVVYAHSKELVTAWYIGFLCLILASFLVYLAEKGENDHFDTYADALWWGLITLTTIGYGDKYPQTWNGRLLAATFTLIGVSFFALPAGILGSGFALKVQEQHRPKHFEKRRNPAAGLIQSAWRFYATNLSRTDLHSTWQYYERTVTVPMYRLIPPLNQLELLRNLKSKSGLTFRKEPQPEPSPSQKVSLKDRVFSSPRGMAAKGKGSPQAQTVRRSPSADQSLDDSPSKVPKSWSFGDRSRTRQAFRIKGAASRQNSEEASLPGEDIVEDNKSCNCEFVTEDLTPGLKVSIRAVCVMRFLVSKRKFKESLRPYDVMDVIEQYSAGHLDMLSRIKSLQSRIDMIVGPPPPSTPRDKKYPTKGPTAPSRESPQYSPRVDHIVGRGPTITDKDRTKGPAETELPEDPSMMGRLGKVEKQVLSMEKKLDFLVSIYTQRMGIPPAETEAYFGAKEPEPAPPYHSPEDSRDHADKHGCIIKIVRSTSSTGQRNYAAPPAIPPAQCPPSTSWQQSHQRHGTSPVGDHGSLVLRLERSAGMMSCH", "test": "KCNQ oocyte two-electrode voltage clamp, whole-cell outward current", "assay_type": "cell-based", "details": "single holding potential (−40 μM [sic]), Xenopus oocytes", "protocol": "The ability of compounds described in the present invention to open KCNQ channels and increase whole-cell outward (K^+) KCNQ-mediated currents was assessed under voltage-clamp conditions by determining their ability to increase cloned mouse KCNQ2 (mKCNQ2)-mediated, heteromultimeric KCNQ2/3 (mKCNQ2/hKCNQ3)-mediated, and human KCNQ5 (hKCNQ5)-mediated outward currents heterologously expressed in Xenopus oocytes. Oocytes were prepared and injected using standard techniques; each oocyte was injected with approximately 50 nl of mKCNQ2, or hKCNQ5 cRNA. In the case of mKCNQ2/h3 heteromultimeric channel expression, equal amounts (25-50 nL) of each cRNA were co-injected. […] Following injection, oocytes were maintained at 17° in ND96 medium consisting of (in mM): NaCl, 90; KCl, 1.0; CaCl2, 1.0; MgCl2, 1.0; HEPES, 5.0; pH 7.5. Horse serum (5%) and penicillin/streptomycin (5%) were added to the incubation medium. Recording commenced 2-6 days following mRNA injection. Prior to the start of an experiment oocytes were placed in a recording chamber and incubated in Modified Barth's Solution (MBS) consisting of (in mM): NaCl, 88; NaHCO3, 2.4; KCl, 1.0; HEPES, 10; MgSO4, 0.82; Ca(NO3)2, 0.33; CaCl2, 0.41; pH 7.5.\nOocytes were impaled with electrodes (1-2 MΩ) and standard 2-electrode voltage clamp techniques were employed to record whole-cell membrane currents. Recordings were accomplished using standard two-electrode voltage clamp techniques [Stuhmer, W., et al., Methods in Enzymology, Vol. 207: 319-339 (1992)]. Voltage-clamp protocols typically consisted of a series of voltage steps 1-5 sec duration, in +10 mV steps from a holding potential of −90 mV to a maximal potential of +40 mV; records were digitized at 5 kHz and stored on a computer using pClamp data acquisition and analysis software (Axon Instruments). Compounds were evaluated at a single concentration and at a single holding potential (−40 μM); the effect of the selected compounds of Formula I on KCNQ2 current was expressed as the percent of control current and is listed in Table I."}, "[3]": {"tested_on": "nerve injury-induced tactile allodynia (L5/L6 ligation), Sprague Dawley rats", "test": "Chung model of neuropathic pain (Chung surgery and von Frey test)", "assay_type": "in vivo, rat", "details": "100 mg/kg, i.v., von Frey thresholds over 90 min", "protocol": "To test agents for activity against peripheral mononeuropathy nerve injury-induced tactile allodynia, male Sprague Dawley rats (wt. 120-160 g) were surgically prepared with unilateral tight ligation of spinal nerves L5 and L6 following the method of Kim and Chung (Kim S. H., Chung J. M. (1992) Pain, September;50(3):355-63). After 3-4 weeks recovery, paw withdrawal to light touch was assessed as described by Chaplan et al. (Chaplan S. R., et al., (1994) J. Neurosci Methods, July;53(1):55-63). In brief, rats are placed in a plastic cage with a wire mesh bottom and allowed to acclimate for 15-30 minutes, until cage exploration and grooming stops. The plantar surface of each hind paw is touched with a series of von Frey hairs with varying stiffness requiring a known force to buckle to determine the nociceptive threshold. Adult male Sprague Dawley rats (avg. wt. 340 g) were tested in the present study. After acclimation, baseline von Frey thresholds were assessed for the injured hindpaw at −15 min. All test compounds were delivered at 0 min by the intravenous (i.v.) route in a volume of 0.5-2 ml/kg. The vehicle for test compounds was 100% PEG-400. For gabapentin the vehicle was deionized H2O. Animals were tested in one of the following 4 treatment conditions: (a) PEG400, (b) gabapentin (Neurontin) 100 mg/kg, (c) test compounds 3 mg/kg and (d) test compounds 10 mg/kg. Following drug administration, von Frey thresholds are measured at 15, 30, 60 and 90 min. Data were analyzed by a 2-way repeated measures analysis of variance followed by Dunnett's test (p<0.05). Experimenters were kept blind to the treatment condition of rats they tested.\nReversal of neuropathic pain behavior may be expressed as a percentage (0-100%) of the maximum possible effect, over and above the vehicle effects. Specifically, drug effects can be described in terms Δ% MPE according to the following equation: [formula]\nAUCdrug=area under the curve for von Frey thresholds of the drug-treated group;\nAUCvehicle=area under the curve for von Frey thresholds in the vehicle group;\nTime=duration of post-drug testing period (90 min); and\nMax=maximum von Frey threshold (15 g).\nFor example, a compound which immediately reversed neuropathic pain behavior to normal levels, such that animals only responded to the highest von Frey filament (15 g), and maintained normal levels through out the post-drug testing period (90 min) would be calculated as Δ% MPE=100%."}, "[4]": {"tested_on": "cortical spreading depression (KCl application), Long-Evans rats", "test": "In vivo electrophysiology: number of cortical spreading depressions produced by KCl application", "details": "i.v., 15 min prior to KCl, rat", "source_text": "Male Long-Evans rats (300-450 g) were used in the present studies (Harlan). Rats were anesthetized with urethane anesthesia (1.2 g/kg i.p.) and placed in a stereotaxic frame. Under anesthesia a Silastic catheter was placed in the jugular vein of the rats. The skull was exposed using a scalpel. A small hole (approximately 2 mm by 3 mm) was drilled in to the skull rostral to the lambdoid suture using a microdrill and steel burr. The dura was disrupted and a drop of mineral oil was placed in this hole to prevent dehydration of the underlying cortex. Ultimately this hole was used for the application of crystalline KCl (described below).\nTwo additional holes were place in the skull unilaterally at 4 and 8 mm rostral to the application hole. Silver wire electrodes were placed in these latter holes and secured to the skull using acrylic cement. A similar silver wire electrode was sutured to the nuchal muscle to serve as a reference electrode. Electrical DC recordings were obtained using a standard differential amplifier (Warner, DP-304) and commercially available data acquisition equipment (Cambridge Electronic Design, 1401 A-D converter and Spike2 software).\nAll experimental procedures were conducted while the rats were maintained under anesthesia. Rats were injected with test compound, valproic acid or vehicle (100% PEG-400) 15 min prior to the application of crystalline KCl to the application site described above. All injections were given via the jugular vein at a volume of ≦0.5 ml/kg. Only one treatment was tested per animal. The effect of valproic acid was also determined in this study due to the fact that Depakote™ (divalproex sodium) is one of only three drugs currently indicated for the prophylatic treatment of migraine headache. Valproic acid (30-200 mg/kg i.v.) was obtained from Sigma Chemical Company and was dissolved in a vehicle of isotonic saline.\nKCl was applied to the application site for 10 min and was then removed using a saline soaked cotton swab. Mineral oil was subsequently reapplied to the application site. Typically, this application produced a long-lasting series of spreading depressions. The number of spreading depressions produced by this KCl application was the primary measure used to access the effectiveness of compounds in this assay.\nData were analyzed using analyses of variance followed by the Dunnett post-hoc test for pairwise comparisons, when appropriate. A difference was considered significant when p≦0.05.\nThe effect of representative compounds of Formula I on spreading depression is expressed as the percent reduction from vehicle control and is listed in Table 3."}},
  "data": [
    {"molecule": "CC(NC(=O)/C=C/c1ccc(F)cc1)c1ccc(F)c(N2CCOCC2)c1", "note": "(racemic) [Example 152, (±)-N-[1-(4-Fluoro-3-morpho-lin-4-yl-phenyl)-eth-yl]-3-(4-fluoro-phen-yl)-acrylamide]", "values": [
      {"measurement": "Stretched attend postures, percent of vehicle control", "setting": "[1]; separate experiments with a vehicle control, dose not given", "value": "80 % of vehicle control"}
    ]},
    {"molecule": "CC(NC(=O)/C=C/c1cccc(F)c1)c1ccc2c(c1)OCCO2", "note": "(racemic) [Example 183, (±)-3-(3-Fluorophenyl)-N-[1-(2.3-dihydrobenzo[1,4]dioxin-6-yl)-ethyl]acrylamide]", "values": [
      {"measurement": "activity at 10 µM", "setting": "[2]", "value": 135, "unit": "%"}
    ]},
    {"molecule": "COC(=O)N1CCc2ccc(C(C)NC(=O)/C=C/c3ccccc3)cc2C1", "note": "(racemic) [Example 197, (±)-7-[1-(3-Phenyl-acryloyl-amino)-ethyl]-3,4-di-hydro-1H-iso-quinoline-2-carboxylic acid methyl ester]", "values": [
      {"measurement": "activity at 10 µM", "setting": "[2]", "value": 187, "unit": "%"}
    ]},
    {"molecule": "COC(=O)N1CCc2ccc(C(C)NC(=O)/C=C/c3ccc(Cl)cc3)cc2C1", "note": "(racemic) [Example 199, (±)-7-{1-[3-(4-Chloro-phen-yl)-acryloylamino]-eth-yl}-3,4-dihydro-1H-iso-quinoline-2-carboxylic acid methyl ester]", "values": [
      {"measurement": "activity at 5 µM", "setting": "[2]", "value": 138, "unit": "%"}
    ]},
    {"molecule": "COC(=O)N1CCc2ccc(C(C)NC(=O)/C=C/c3ccccc3C)cc2C1", "note": "(racemic) [Example 200, (±)-7-[1-(3-o-Tolyl-acryloyl-amino)-ethyl]-3,4-di-hydro-1H-iso-quinoline-2-carboxylic acid methyl ester]", "values": [
      {"measurement": "activity at 10 µM", "setting": "[2]", "value": 126, "unit": "%"}
    ]},
    {"molecule": "COC(=O)N1CCc2ccc(C(C)NC(=O)/C=C/c3ccccc3Cl)cc2C1", "note": "(racemic) [Example 201, (±)-7-{1-[3-(2-Chloro-phen-yl)-acryloylamino]-eth-yl}-3,4-dihydro-1H-iso-quinoline-2-carboxylic acid methyl ester]", "values": [
      {"measurement": "activity at 5 µM", "setting": "[2]", "value": 157, "unit": "%"}
    ]},
    {"molecule": "CC(NC(=O)/C=C/c1ccc(Cl)cc1)c1ccc2c(c1)CCO2", "note": "(single isomer, unassigned) [Example 79, 3-(4-Chloro-phenyl)-N-[1-(2,3-di-hydro-benzo-furan-5-yl)-ethyl]-acrylamide]", "values": [
      {"measurement": "activity at 1 µM", "setting": "[2]", "value": 123, "unit": "%"}
    ]},
    {"molecule": "O=C1CC2(CCCC2)CC(=O)N1CCCCN1CCN(c2ncccn2)CC1", "note": "[Buspirone, buspirone, reference compound]", "values": [
      {"measurement": "% Reduction SAPs", "setting": "[1]; 0.5 mg/kg, i.v., mouse", "value": "71 (0.5 mg/kg. i.v.) %"},
      {"measurement": "Reduction in stretched attend postures (in words)", "setting": "[1]; buspirone 0.5 mg/kg, compounds of Formula I administered IV", "value": "significant reduction"}
    ]},
    {"molecule": "C[C@H](NC(=O)/C=C/c1ccccc1)c1ccc2ccccc2c1", "note": "[Example 2, (S)-N-(1-Naphthalen-2-yl-eth-yl)-3-phenyl-acryla-mide]", "values": [
      {"measurement": "activity at 5 µM", "setting": "[2]", "value": 160, "unit": "%"}
    ]},
    {"molecule": "COc1cccc(/C=C/C(=O)N[C@@H](C)c2ccc3ccccc3c2)c1OC", "note": "[Example 6, (S)-3-(2,3-Dimethoxy-phen-yl)-N-(1-naphthalen-2-yleth-yl)-acrylamide]", "values": [
      {"measurement": "activity at 1 µM", "setting": "[2]", "value": 110, "unit": "%"}
    ]},
    {"molecule": "C[C@H](NC(=O)/C=C/c1ccc(OC(F)(F)F)cc1)c1ccc2ccccc2c1", "note": "[Example 19, (S)-N-(1-Naphthalen-2-yl-eth-yl)-3-(4-tri-fluoromethoxy-phen-yl)-acrylamide]", "values": [
      {"measurement": "activity at 1 µM", "setting": "[2]", "value": 123, "unit": "%"}
    ]},
    {"molecule": "NCC1(CC(=O)O)CCCCC1", "note": "[Gabapentin, gabapentin, reference compound]", "values": [
      {"measurement": "AUC (Δ% MPE)", "setting": "[3]", "value": "50 (100 mg/kg, i.v.) Δ% MPE"}
    ]},
    {"molecule": "CCCC(CCC)C(=O)O", "note": "[Valproic acid, reference compound]", "values": [
      {"measurement": "% Reduction (number of spreading depressions, from vehicle control)", "setting": "[4]; 100 mg/kg", "value": "31 (100 mg/kg, i.v.) %"}
    ]},
    {"molecule": "(S)-N-[1-(3-(2,6-di- methyl-Morpholin)-4-yl-phen- yl)-ethyl]-3-phen- yl-acrylamide [Example 84]", "values": [
      {"measurement": "% Reduction (number of spreading depressions, from vehicle control)", "setting": "[4]; 1 mg/kg", "value": "37 (1 mg/kg, i.v.) %"}
    ]}
  ]
}
